{
  "source": "patent US9034943B2",
  "about": "“Salts of dehydroacetic acid as a pyrithione stabilizer in plastics” (LONZA LTD, priority 2009, dated 2015)",
  "key": {"[1]": {"procedure": "(§1) Zinc dehydroacetate and zinc pyrithione were mixed with filled and clear commercial flexible polyvinyl chloride (PVC) compounds. The mixtures were extruded using an intermeshing modular co-rotating twin screw extruder to form flexible PVC compounds. […] Following extrusion, the flexible PVC compounds were cooled. Once cooling was complete, the flexible PVC compounds were pressed at 185° C. to form plastic sheets.\nas §1, with “Zinc” for “Zinc dehydroacetate and zinc”, “pyrithione was” for “pyrithione were”\nThe weathering tester was set to a cycle of eight hours of ultraviolet A light (long wave) exposure and a four hour water condensation cycle in accordance with ASTM […]. After 1,000 hours of exposure, the plastic sheets were examined for color development."}, "[2]": {"test_system": "Aspergillus niger ATCC 9642; Aureobasidium pullulans ATCC 15233; Chaetomium globosum ATCC 6205; Penicillium funiculosum ATCC 11797; Trichoderma virens ATCC …", "experiment": "Fungal resistance test, ASTM G21, on mineral salts agar", "design": "Zone of Inhibition: key to the marks not given beside the values", "settings": "PVC samples inoculated with mixed fungi, 28° C., 4 weeks"}},
  "note": "Like-named read-outs stand apart in the source and are kept apart here.",
  "data": [
    {"substance": "zinc pyrithione", "values": [
      {"measurement": "Color Rating of Clear FPVC", "setting": "[1]; clear flexible PVC sheet, 0 hours QUV exposure", "result": 0},
      {"measurement": "Color Rating of Clear FPVC", "setting": "[1]; clear flexible PVC sheet, 1,000 hours QUV exposure (8 h UVA / 4 h condensation cycle)", "result": 3},
      {"measurement": "Color Rating of Filled FPVC", "setting": "[1]; filled flexible PVC sheet, 0 hours QUV exposure", "result": 0},
      {"measurement": "Color Rating of Filled FPVC", "setting": "[1]; filled flexible PVC sheet, 1,000 hours QUV exposure (8 h UVA / 4 h condensation cycle)", "result": 4},
      {"measurement": "Fungal Growth Reading", "setting": "[2]", "result": 0},
      {"measurement": "Zone of Inhibition", "setting": "[2]", "result": "++"}
    ]}
  ]
}
